Inhibition data for 3 molecules are collected here from ChEMBL document CHEMBL3627608, “Crystal structures of human RIP2 kinase catalytic domain complexed with ATP-competitive inhibitors: Foundations for understanding inhibitor selectivity” (Bioorg Med Chem, 2015).

Assay [1] deals with Protein kinase C theta type (Homo sapiens) (UniProt Q04759). The experiment in a line: Inhibition of PKCtheta (unknown origin) at 10 uM after 120 mins P33 radiolabeled kinase activity assay.
Assay [2] deals with LIM domain kinase 2 (Homo sapiens) (UniProt P53671). Nature of the assay: Inhibition of LIMK2 (unknown origin) at 10 uM after 120 mins P33 radiolabeled kinase activity assay.
Chain of LIM domain kinase 2 (Homo sapiens) (P53671 whole entry, looked up, the tested form may be a part): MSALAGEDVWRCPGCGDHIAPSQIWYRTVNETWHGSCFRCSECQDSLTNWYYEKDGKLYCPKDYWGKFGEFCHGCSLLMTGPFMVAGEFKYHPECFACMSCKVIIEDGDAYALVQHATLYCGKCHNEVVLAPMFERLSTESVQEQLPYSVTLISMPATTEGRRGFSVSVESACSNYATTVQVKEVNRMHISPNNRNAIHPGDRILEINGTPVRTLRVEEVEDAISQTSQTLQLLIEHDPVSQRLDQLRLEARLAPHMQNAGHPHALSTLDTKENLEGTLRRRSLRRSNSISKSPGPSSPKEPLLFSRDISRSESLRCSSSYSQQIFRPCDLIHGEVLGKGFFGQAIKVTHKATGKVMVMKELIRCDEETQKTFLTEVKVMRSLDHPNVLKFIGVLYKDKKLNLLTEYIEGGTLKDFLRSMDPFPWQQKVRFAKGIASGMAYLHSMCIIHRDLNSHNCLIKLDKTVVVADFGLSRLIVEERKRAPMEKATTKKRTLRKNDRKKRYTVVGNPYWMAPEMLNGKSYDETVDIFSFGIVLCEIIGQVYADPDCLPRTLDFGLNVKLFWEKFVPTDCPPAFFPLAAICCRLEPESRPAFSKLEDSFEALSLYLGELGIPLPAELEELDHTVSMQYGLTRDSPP
Assay [3] addresses TGF-beta receptor type-2 (Homo sapiens) (UniProt P37173). The experiment in a line: Inhibition of TGFBR2 (unknown origin) at 10 uM after 120 mins P33 radiolabeled kinase activity assay.
For assay [4], the target named is Serine/threonine-protein kinase tousled-like 2 (Homo sapiens) (UniProt Q86UE8). Nature of the assay: Inhibition of TLK2 (unknown origin) at 10 uM after 120 mins P33 radiolabeled kinase activity assay.
Assay [5] concerns the target Calcium/calmodulin-dependent protein kinase type II subunit alpha (Homo sapiens) (UniProt Q9UQM7). Nature of the assay: Inhibition of CAMK2alpha (unknown origin) at 10 uM after 120 mins P33 radiolabeled kinase activity assay.
In assay [6] the target is Mitogen-activated protein kinase kinase kinase 3 (Homo sapiens) (UniProt Q99759). Nature of the assay: Inhibition of MEKK3 (unknown origin) at 10 uM after 120 mins P33 radiolabeled kinase activity assay.
The subject of assay [7] is Fibroblast growth factor receptor. The experiment in a line: Inhibition of FGFR (unknown origin) at 10 uM after 120 mins P33 radiolabeled kinase activity assay. As to conditions: Homo sapiens.
Assay [8] addresses Mitogen-activated protein kinase kinase kinase 21 (Homo sapiens) (UniProt Q5TCX8). Nature of the assay: Inhibition of MLK4 (unknown origin) at 10 uM after 120 mins P33 radiolabeled kinase activity assay.
Assay [9] deals with Serine/threonine-protein kinase 16 (Homo sapiens) (UniProt O75716). Nature of the assay: Inhibition of STK16 (unknown origin) at 10 uM after 120 mins P33 radiolabeled kinase activity assay.
For assay [10], the target named is Mitogen-activated protein kinase kinase kinase 8 (Homo sapiens) (UniProt P41279). Nature of the assay: Inhibition of COT1 (unknown origin) at 10 uM after 120 mins P33 radiolabeled kinase activity assay.
Assay [11] addresses RAC-gamma serine/threonine-protein kinase (Homo sapiens) (UniProt Q9Y243). Nature of the assay: Inhibition of AKT3 (unknown origin) at 10 uM after 120 mins P33 radiolabeled kinase activity assay.
The target in assay [12] is Serine/threonine-protein kinase ICK (Homo sapiens) (UniProt Q9UPZ9). Nature of the assay: Inhibition of LCK2 (unknown origin) at 10 uM after 120 mins P33 radiolabeled kinase activity assay.
Assay [13] concerns the target Mitogen-activated protein kinase 10 (Homo sapiens) (UniProt P53779). Nature of the assay: Inhibition of JNK3 (unknown origin) at 10 uM after 120 mins P33 radiolabeled kinase activity assay.
Assay [14] addresses Serine/threonine-protein kinase PAK 1 (Homo sapiens) (UniProt Q13153). The experiment in a line: Inhibition of PAK1 (unknown origin) at 10 uM after 120 mins P33 radiolabeled kinase activity assay.
For assay [15], the target named is SRSF protein kinase 3 (Homo sapiens) (UniProt Q9UPE1). The experiment in a line: Inhibition of MSSK1 (unknown origin) at 10 uM after 120 mins P33 radiolabeled kinase activity assay.
For assay [16], the target named is Bone morphogenetic protein receptor type-1B (Homo sapiens) (UniProt O00238). The experiment in a line: Inhibition of ALK6 (unknown origin) at 10 uM after 120 mins P33 radiolabeled kinase activity assay.
In assay [17] the target is CDK4/Cyclin D3 (Homo sapiens) (UniProt P11802+P30281). Nature of the assay: Inhibition of CDK4/cyclin D3 (unknown origin) at 10 uM after 120 mins P33 radiolabeled kinase activity assay. The format is protein-complex assay.
Assay [18] has as its target Serine/threonine-protein kinase tousled-like 1 (Homo sapiens) (UniProt Q9UKI8). The experiment in a line: Inhibition of TLK1 (unknown origin) at 10 uM after 120 mins P33 radiolabeled kinase activity assay.
Assay [19] addresses Serine/threonine-protein kinase Nek7 (Homo sapiens) (UniProt Q8TDX7). The experiment in a line: Inhibition of NEK7 (unknown origin) at 10 uM after 120 mins P33 radiolabeled kinase activity assay.
In assay [20] the target is Dual specificity mitogen-activated protein kinase kinase 6 (Homo sapiens) (UniProt P52564). The experiment in a line: Inhibition of MKK6 (unknown origin) at 10 uM after 120 mins P33 radiolabeled kinase activity assay.
The target of assay [21] is Casein kinase II subunit alpha' (Homo sapiens) (UniProt P19784). Nature of the assay: Inhibition of CK2alpha2 (unknown origin) at 10 uM after 120 mins P33 radiolabeled kinase activity assay.
In assay [22] the target is Tyrosine-protein kinase JAK3 (Homo sapiens) (UniProt P52333). Nature of the assay: Inhibition of JAK3 (unknown origin) at 10 uM after 120 mins P33 radiolabeled kinase activity assay.
Assay [23] addresses Activin receptor type-1B (Homo sapiens) (UniProt P36896). The experiment in a line: Inhibition of ALK4 (unknown origin) at 10 uM after 120 mins P33 radiolabeled kinase activity assay.
The target in assay [24] is Wee1-like protein kinase (Homo sapiens) (UniProt P30291). The experiment in a line: Inhibition of WEE1 (unknown origin) at 10 uM after 120 mins P33 radiolabeled kinase activity assay.
Assay [25] deals with Serine/threonine-protein kinase WNK1 (Homo sapiens) (UniProt Q9H4A3). Nature of the assay: Inhibition of WNK1 (unknown origin) at 10 uM after 120 mins P33 radiolabeled kinase activity assay.
Chain of Serine/threonine-protein kinase WNK1 (Homo sapiens) (Q9H4A3 whole entry, looked up): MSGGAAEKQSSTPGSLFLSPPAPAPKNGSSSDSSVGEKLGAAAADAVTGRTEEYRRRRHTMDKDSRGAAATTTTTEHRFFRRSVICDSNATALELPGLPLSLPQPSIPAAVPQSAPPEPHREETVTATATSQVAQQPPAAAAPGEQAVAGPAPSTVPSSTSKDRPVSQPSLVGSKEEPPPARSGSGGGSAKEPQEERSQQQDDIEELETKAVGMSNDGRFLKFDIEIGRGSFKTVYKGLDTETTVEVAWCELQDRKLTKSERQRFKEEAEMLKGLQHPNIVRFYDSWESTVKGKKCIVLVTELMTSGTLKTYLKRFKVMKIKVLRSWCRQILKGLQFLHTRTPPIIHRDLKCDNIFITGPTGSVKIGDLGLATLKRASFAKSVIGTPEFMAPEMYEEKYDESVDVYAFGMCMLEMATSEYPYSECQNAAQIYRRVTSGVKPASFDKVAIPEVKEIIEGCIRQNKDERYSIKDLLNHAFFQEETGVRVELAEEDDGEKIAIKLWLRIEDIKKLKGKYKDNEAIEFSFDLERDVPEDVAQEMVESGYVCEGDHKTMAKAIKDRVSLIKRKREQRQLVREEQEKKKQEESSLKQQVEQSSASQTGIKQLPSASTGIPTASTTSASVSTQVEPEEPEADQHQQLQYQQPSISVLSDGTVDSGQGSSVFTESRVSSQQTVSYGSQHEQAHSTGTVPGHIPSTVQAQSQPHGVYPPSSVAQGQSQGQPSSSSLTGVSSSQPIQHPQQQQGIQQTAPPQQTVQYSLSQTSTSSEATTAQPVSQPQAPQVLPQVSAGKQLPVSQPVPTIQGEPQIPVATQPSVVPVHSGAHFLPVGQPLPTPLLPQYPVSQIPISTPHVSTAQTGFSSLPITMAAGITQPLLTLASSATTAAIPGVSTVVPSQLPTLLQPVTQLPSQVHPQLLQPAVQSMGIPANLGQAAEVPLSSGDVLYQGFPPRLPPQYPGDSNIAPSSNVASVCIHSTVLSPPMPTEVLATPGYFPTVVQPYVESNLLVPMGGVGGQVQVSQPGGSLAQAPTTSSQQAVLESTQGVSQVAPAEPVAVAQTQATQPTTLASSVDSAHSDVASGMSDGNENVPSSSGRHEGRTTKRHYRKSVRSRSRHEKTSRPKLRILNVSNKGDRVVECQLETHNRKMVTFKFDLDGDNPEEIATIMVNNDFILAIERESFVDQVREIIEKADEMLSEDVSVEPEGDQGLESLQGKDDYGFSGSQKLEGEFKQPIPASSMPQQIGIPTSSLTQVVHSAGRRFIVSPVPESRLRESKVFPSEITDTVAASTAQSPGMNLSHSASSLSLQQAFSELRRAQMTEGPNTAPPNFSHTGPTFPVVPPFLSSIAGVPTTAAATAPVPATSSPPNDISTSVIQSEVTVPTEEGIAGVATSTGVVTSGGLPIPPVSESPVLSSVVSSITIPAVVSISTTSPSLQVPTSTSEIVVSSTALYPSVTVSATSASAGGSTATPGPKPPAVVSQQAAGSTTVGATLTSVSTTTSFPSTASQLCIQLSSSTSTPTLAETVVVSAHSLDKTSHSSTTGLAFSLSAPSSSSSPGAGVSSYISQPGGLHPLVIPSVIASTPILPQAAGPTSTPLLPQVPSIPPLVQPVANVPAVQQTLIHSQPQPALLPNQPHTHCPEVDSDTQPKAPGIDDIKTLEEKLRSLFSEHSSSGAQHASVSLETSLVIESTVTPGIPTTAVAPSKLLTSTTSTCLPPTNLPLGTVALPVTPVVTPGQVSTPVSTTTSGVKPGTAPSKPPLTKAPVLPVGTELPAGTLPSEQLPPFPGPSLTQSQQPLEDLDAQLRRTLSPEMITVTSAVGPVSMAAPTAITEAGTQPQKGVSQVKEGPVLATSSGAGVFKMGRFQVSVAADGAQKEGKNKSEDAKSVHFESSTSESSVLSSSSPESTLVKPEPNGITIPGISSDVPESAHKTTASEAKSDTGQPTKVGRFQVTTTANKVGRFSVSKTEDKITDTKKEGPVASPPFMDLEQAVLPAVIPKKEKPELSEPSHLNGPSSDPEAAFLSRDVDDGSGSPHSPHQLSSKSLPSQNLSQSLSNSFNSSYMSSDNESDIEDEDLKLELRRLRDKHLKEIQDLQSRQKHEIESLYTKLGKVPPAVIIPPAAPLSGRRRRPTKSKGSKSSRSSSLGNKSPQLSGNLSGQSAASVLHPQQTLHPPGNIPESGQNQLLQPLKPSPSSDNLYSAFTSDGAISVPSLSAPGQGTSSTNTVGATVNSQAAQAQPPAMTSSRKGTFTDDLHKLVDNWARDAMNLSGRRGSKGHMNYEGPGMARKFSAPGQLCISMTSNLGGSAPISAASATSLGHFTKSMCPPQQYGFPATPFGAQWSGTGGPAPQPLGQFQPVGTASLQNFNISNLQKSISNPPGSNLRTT
For assay [26], the target named is Mitogen-activated protein kinase 7 (Homo sapiens) (UniProt Q13164). Nature of the assay: Inhibition of ERK5 (unknown origin) at 10 uM after 120 mins P33 radiolabeled kinase activity assay.
Assay [27] addresses Tau-tubulin kinase 1 (Homo sapiens) (UniProt Q5TCY1). The experiment in a line: Inhibition of TTBK1 (unknown origin) at 10 uM after 120 mins P33 radiolabeled kinase activity assay.
In assay [28] the target is Calcium/calmodulin-dependent protein kinase kinase 1 (Homo sapiens) (UniProt Q8N5S9). The experiment in a line: Inhibition of CAMKK1 (unknown origin) at 10 uM after 120 mins P33 radiolabeled kinase activity assay.
The target in assay [29] is Serine/threonine-protein kinase Nek6 (Homo sapiens) (UniProt Q9HC98). Nature of the assay: Inhibition of NEK6 (unknown origin) at 10 uM after 120 mins P33 radiolabeled kinase activity assay.
In assay [30] the target is Serine/threonine-protein kinase 25 (Homo sapiens) (UniProt O00506). Nature of the assay: Inhibition of STK25 (unknown origin) at 10 uM after 120 mins P33 radiolabeled kinase activity assay.
In assay [31] the target is Serine/threonine-protein kinase 26 (Homo sapiens) (UniProt Q9P289). Nature of the assay: Inhibition of MST4 (unknown origin) at 10 uM after 120 mins P33 radiolabeled kinase activity assay.
The target in assay [32] is Dual specificity tyrosine-phosphorylation-regulated kinase 4 (Homo sapiens) (UniProt Q9NR20). Nature of the assay: Inhibition of DYRK4 (unknown origin) at 10 uM after 120 mins P33 radiolabeled kinase activity assay.
The target of assay [33] is Megakaryocyte-associated tyrosine-protein kinase (Homo sapiens) (UniProt P42679). Nature of the assay: Inhibition of CTK (unknown origin) at 10 uM after 120 mins P33 radiolabeled kinase activity assay.
Assay [34] addresses Serine/threonine-protein kinase 24 (Homo sapiens) (UniProt Q9Y6E0). The experiment in a line: Inhibition of MST3 (unknown origin) at 10 uM after 120 mins P33 radiolabeled kinase activity assay.

Chain of Tau-tubulin kinase 1 (Homo sapiens) (Q5TCY1 whole entry): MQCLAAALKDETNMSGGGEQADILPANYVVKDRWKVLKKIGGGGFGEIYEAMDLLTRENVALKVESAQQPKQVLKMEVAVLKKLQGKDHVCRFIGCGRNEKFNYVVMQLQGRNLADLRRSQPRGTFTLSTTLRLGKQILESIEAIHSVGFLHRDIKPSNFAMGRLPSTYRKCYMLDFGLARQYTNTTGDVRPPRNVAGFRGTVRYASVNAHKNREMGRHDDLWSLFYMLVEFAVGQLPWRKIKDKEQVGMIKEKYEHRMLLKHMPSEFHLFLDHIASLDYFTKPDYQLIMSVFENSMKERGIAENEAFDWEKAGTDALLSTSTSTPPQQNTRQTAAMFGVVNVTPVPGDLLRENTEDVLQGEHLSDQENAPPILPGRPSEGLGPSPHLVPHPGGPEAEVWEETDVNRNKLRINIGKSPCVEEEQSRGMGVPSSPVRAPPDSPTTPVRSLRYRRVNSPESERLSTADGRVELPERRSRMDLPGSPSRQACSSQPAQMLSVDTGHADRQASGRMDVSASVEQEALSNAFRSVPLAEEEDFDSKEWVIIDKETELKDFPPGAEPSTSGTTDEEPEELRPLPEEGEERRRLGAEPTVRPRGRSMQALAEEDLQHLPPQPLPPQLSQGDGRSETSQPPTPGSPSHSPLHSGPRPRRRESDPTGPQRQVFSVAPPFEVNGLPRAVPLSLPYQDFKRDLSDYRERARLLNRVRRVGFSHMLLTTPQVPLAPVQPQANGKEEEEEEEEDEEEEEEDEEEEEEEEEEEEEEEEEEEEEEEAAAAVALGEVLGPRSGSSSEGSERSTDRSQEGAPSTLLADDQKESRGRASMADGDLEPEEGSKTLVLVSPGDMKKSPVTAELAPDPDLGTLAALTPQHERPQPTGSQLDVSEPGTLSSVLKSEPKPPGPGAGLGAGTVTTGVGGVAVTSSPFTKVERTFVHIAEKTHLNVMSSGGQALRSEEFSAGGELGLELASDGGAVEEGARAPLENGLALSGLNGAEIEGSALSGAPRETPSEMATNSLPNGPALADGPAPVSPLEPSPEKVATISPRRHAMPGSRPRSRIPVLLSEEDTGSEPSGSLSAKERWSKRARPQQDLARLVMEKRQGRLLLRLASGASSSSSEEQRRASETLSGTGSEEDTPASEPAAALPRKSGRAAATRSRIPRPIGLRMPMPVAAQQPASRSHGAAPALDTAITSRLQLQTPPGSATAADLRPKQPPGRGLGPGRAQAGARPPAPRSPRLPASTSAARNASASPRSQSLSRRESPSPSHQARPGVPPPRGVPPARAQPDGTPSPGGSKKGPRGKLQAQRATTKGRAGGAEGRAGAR
Chain of RAC-gamma serine/threonine-protein kinase (Homo sapiens) (Q9Y243 whole entry): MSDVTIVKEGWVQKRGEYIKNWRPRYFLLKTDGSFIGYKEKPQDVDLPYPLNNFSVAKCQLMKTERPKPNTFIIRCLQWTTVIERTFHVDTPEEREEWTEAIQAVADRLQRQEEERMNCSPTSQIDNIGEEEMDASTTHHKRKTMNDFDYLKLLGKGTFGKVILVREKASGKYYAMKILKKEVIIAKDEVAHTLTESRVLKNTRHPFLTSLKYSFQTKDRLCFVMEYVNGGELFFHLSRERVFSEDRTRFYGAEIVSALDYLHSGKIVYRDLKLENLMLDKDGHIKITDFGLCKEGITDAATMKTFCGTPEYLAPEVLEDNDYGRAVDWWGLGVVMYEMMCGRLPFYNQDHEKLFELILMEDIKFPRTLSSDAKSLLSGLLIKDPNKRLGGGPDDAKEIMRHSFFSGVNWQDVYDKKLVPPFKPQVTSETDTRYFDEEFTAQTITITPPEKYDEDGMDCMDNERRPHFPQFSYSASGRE
Chain of Serine/threonine-protein kinase Nek7 (Homo sapiens) (Q8TDX7 whole entry, looked up): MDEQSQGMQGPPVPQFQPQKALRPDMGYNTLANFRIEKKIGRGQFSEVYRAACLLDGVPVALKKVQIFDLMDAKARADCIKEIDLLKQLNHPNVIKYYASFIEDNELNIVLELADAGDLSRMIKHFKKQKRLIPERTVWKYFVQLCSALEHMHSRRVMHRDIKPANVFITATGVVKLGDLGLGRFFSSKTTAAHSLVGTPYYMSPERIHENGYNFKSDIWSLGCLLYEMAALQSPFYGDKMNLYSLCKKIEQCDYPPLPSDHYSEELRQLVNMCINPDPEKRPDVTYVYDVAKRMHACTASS

The term inhibition denotes the change of the read-out against control, counted positive when it falls. In the case of `CS(=O)(=O)c1cccc(Nc2nccc(-c3sc(N4CCOCC4)nc3-c3cccc(NS(=O)(=O)c4c(F)cccc4F)c3)n2)c1`, the inhibition was -5.48% in [1]; 99.1% in [2]; 96.6% in assay [3]; -6.51% in [4]; -6.79% in assay [5]; 9.88% in assay [6]. In addition, the inhibition in [7] was 46.7%; in [8] it was 49.7%; in assay [9], 7.44%; in [10], 11.2%; in assay [11], 6.38%; in assay [12], -4.6%. Further, the inhibition is -7.87% in assay [13]; 56.5% in assay [14]; -1.37% in assay [15]; 92.8% in [16]; 26.6% in [17]; -4.48% in assay [18]. In addition, the inhibition came to 33.7% in assay [19]; 80.9% in [20]; 39.8% in assay [21]; 15.9% in [22]; 42.4% in assay [23].

Consider `CC(C)(C)c1cc(NC(=O)Nc2ccc(Oc3ccncc3)cc2)no1`, for which the inhibition in assay [24] was -4.91%; in [2] it was 53.8%; in assay [25], 5.52%; in assay [26], -8.59%; in [15] it was 85%; in assay [17] it was 92.5%. In addition, the inhibition in assay [27] was determined as 8.16%; in assay [28], 60.5%.

For `COCCNC(=O)c1ccc2c(c1)nc(-c1cnc(-c3ccc(Cl)cc3)[nH]1)n2CCOC`, the inhibition in assay [29] was -5.95%; in assay [5], -3.57%; in assay [25], 8.03%; in assay [30], -0.09%; in assay [31] it was 3.31%; in assay [11] it was 6.03%. For the same molecule, the inhibition in assay [32] was -3.46%; in assay [14], 5.25%; in assay [18], -7.05%; in assay [19] it was 6.02%; in assay [27] it was 7.91%; in assay [33], 10.8%. In addition, the inhibition in [34] was 23.8%; in assay [21], -7.82%; in [22] it was -7.14%; in assay [28] it was -7.72%.
